Test results published in US11999728B2, “Estrogen receptor modulators” (Recurium IP Holdings, LLC, priority 2020, dated 2024).

tested on: MCF7; assay: Breast Cancer Cell Proliferation Assay (MCF-7), Cell Titer-Glo; type: cell-based; conditions: Homo sapiens, 120 h, MCF7 cells, 5 days of compound exposure
Protocol: Breast Cancer Cell Proliferation Assay (MCF-7)
MCF7 was expanded and maintained in the medium (Phenol red free DMEM/F12 (Hyclone SH30272.01) NEAA (Gibco11140-050) Na-pyruvate (Gibco 11360-070) and Re-stripped Charcoal stripped FBS (Gemini 100-119)). The cells were adjusted to a concentration of 3,000 cells per mL in the above media, and the cells were incubated (37° C., 5% CO2). The following day a 10-point, serial dilution of compounds was added to the cells at a final concentration ranging from 10-0.000005 μM for test compounds (17β-estradiol was used as a control). Additional cells were plated in 30 wells to serve as the day 1 (pretreatment) comparison. After 5 days of compound exposure, Cell Titer-Glo reagent was added to the cells and the relative luminescence units (RLUs) of each well was determined. Cell Titer-Glo was also added to 32 μL of medium without cells to obtain a background value. The plates were allowed to incubate at room temperature for 10 minutes to stabilize luminescent signal and the luminescence signal was recorded with EnSpire. The relative increase in cell number of each sample is determined as follows: (RLU sample-RLU background/RLU estrogen only treated cells-RLU background)×100=% inhibition.

With C[C@@H]1Cc2c([nH]c3ccccc23)[C@@H](c2ccc(NC3CN(CCC#N)C3)cn2)N1C12CC(C1)C2 [Compound 4, 3-(3-((6-((1S,3R)-2-(bicyclo[1.1.1]pentan-1-yl)-3-methyl-2,3,4,9-tetrahydro-1H-pyrido[3,4-b]indol-1-yl)pyridin-3-yl)amino)azetidin-1-yl)propanenitrile] the IC50 was 0.025 to 0.25 µM.

same assay, conditions: Homo sapiens, MCF7, 120 h, MCF7 cells, 5 days of compound exposure

C[C@@H]1Cc2c([nH]c3ccccc23)[C@@H](c2ccc(O[C@@H]3CCN(CCCF)C3)cc2)N1C12CC(C1)C2 (single isomer, unassigned) [Compound 7] and C[C@@H]1Cc2c([nH]c3ccccc23)[C@@H](c2ccc(O[C@H]3CCN(CCCF)C3)cc2)N1C12CC(C1)C2 (single isomer, unassigned) [Compound 8] cannot be ordered by IC50: 0.025 to 0.25 µM for the first, ≤ 0.025 µM for the second.

C[C@@H]1Cc2c([nH]c3ccccc23)[C@@H](c2ccc(O[C@@H]3CCN(CCCF)C3)nc2)N1C12CC(C1)C2 (single isomer, unassigned) [Compound 9] and C[C@@H]1Cc2c([nH]c3ccccc23)[C@@H](c2ccc(O[C@@H]3CCN(CCCF)C3)cn2)N1C12CC(C1)C2 (single isomer, unassigned) [Compound 11] cannot be ordered by IC50: 0.025 to 0.25 µM for the first, ≥ 0.25 µM for the second.

C[C@@H]1Cc2c([nH]c3ccccc23)[C@@H](c2ccc(O[C@H]3CCN(CCCF)C3)cn2)N1C12CC(C1)C2 (single isomer, unassigned) [Compound 12] and C[C@@H]1Cc2c([nH]c3ccccc23)[C@@H](c2ccc(N[C@H]3CCN(CCCF)C3)nc2)N1C12CC(C1)C2 [Compound 20, 5-((1R,3R)-2-(bicyclo[1.1.1]pentan-1-yl)-3-methyl-2,3,4,9-tetrahydro-1H-pyrido[3,4-b]indol-1-yl)-N—((S)-1-(3-fluoropropyl)pyrrolidin-3-yl)pyridin-2-amine] cannot be ordered by IC50: 0.025 to 0.25 µM for the first, ≤ 0.025 µM for the second.

Compared with C[C@H]1Cc2c([nH]c3ccccc23)[C@H](c2c(F)cc(NC3CN(CCCF)C3)cc2F)N1C12CC(CO)(C1)C2 (single isomer, unassigned) [Compound 17], C[C@@H]1Cc2c([nH]c3ccccc23)[C@@H](c2c(F)cc(NC3CN(CCCF)C3)cc2F)N1C12CC(CO)(C1)C2 (single isomer, unassigned) [Compound 18] is lower in IC50: ≥ 0.25 µM for the first, ≤ 0.025 µM for the second. The second is the more potent here.

C[C@H]1Cc2c([nH]c3ccccc23)[C@H](c2c(F)cc(O[C@H]3CCN(CCCF)C3)cc2F)N1C12CC(C(N)=O)(C1)C2 (single isomer, unassigned) [Compound 32] and C[C@H]1Cc2c([nH]c3ccccc23)[C@H](c2c(F)cc(O[C@@H]3CCN(CCCF)C3)cc2F)N1C12CC(C(N)=O)(C1)C2 (single isomer, unassigned) [Compound 33] cannot be ordered by IC50: ≥ 0.25 µM for the first, ≥ 0.25 µM for the second.

C[C@@H]1Cc2c([nH]c3ccccc23)[C@@H](c2c(F)cc(O[C@@H]3CCN(CCCF)C3)cc2F)N1C12CC(C(N)=O)(C1)C2 (single isomer, unassigned) [Compound 34] and C[C@@H]1Cc2c([nH]c3ccccc23)[C@@H](c2c(F)cc(O[C@H]3CCN(CCCF)C3)cc2F)N1C12CC(C(N)=O)(C1)C2 (single isomer, unassigned) [Compound 35] cannot be ordered by IC50: 0.025 to 0.25 µM for the first, ≤ 0.025 µM for the second.

Going from C[C@@H]1Cc2c([nH]c3ccccc23)[C@@H](c2c(F)cc(O[C@H]3CCN(CCCF)C3)cc2F)N1C12CC(C#N)(C1)C2 (single isomer, unassigned) [Compound 36] to C[C@@H]1Cc2c([nH]c3ccccc23)[C@@H](c2c(F)cc(O[C@@H]3CCN(CCCF)C3)cc2F)N1C12CC(C#N)(C1)C2 (single isomer, unassigned) [Compound 37], the IC50 falls from ≥ 0.25 µM to ≤ 0.025 µM.

C[C@@H]1Cc2c([nH]c3ccccc23)[C@@H](c2ccc(OC3CN(CCCF)C3)cc2)N1C12CC(CO)(C1)C2 (single isomer, unassigned) [Compound 50] and C[C@H]1Cc2c([nH]c3ccccc23)[C@H](c2ccc(OC3CN(CCCF)C3)cc2)N1C12CC(CO)(C1)C2 (single isomer, unassigned) [Compound 51] cannot be ordered by IC50: ≤ 0.025 µM for the first, 0.025 to 0.25 µM for the second.

CCCN1CC(Oc2ccc([C@@H]3c4[nH]c5ccccc5c4C[C@@H](C)N3C34CC(CO)(C3)C4)cc2)C1 (single isomer, unassigned) [Compound 52] and CCCN1CC(Oc2ccc([C@H]3c4[nH]c5ccccc5c4C[C@H](C)N3C34CC(CO)(C3)C4)cc2)C1 (single isomer, unassigned) [Compound 53] cannot be ordered by IC50: ≤ 0.025 µM for the first, 0.025 to 0.25 µM for the second.

First: C[C@@H]1Cc2c([nH]c3ccccc23)[C@@H](c2ccc(NC3CN(CCCF)C3)cc2)N1C12CC(CF)(C1)C2 (single isomer, unassigned) [Compound 62]
Second: C[C@H]1Cc2c([nH]c3ccccc23)[C@H](c2ccc(NC3CN(CCCF)C3)cc2)N1C12CC(CF)(C1)C2 (single isomer, unassigned) [Compound 63]
The IC50 of the first is higher: ≥ 0.25 µM for the first, ≤ 0.025 µM for the second.

C[C@H]1Cc2c([nH]c3ccccc23)[C@H](c2c(F)cc(N[C@H]3CCN(CCCF)C3)cc2F)N1C12CC(CO)(C1)C2 (single isomer, unassigned) [Compound 71] and C[C@@H]1Cc2c([nH]c3ccccc23)[C@@H](c2c(F)cc(NC3CN(CCCF)C3)cc2F)N1C12CC(C(N)=O)(C1)C2 (single isomer, unassigned) [Compound 76] cannot be ordered by IC50: ≤ 0.025 µM for the first, 0.025 to 0.25 µM for the second.

C[C@@H]1Cc2c([nH]c3ccccc23)[C@@H](c2ccc(N[C@@H]3CN(CCCF)C[C@@H]3F)cc2)N1C12CC(C1)C2 (single isomer, unassigned) [Compound 73] and C[C@@H]1Cc2c([nH]c3ccccc23)[C@@H](c2ccc(N[C@H]3CN(CCCF)C[C@@H]3O)cc2)N1C12CC(C1)C2 (single isomer, unassigned) [Compound 79] cannot be ordered by IC50: ≤ 0.025 µM for the first, 0.025 to 0.25 µM for the second.

Going from C[C@H]1Cc2c([nH]c3ccccc23)[C@H](c2c(F)cc(NC3CN(CCCF)C3)cc2F)N1C12CC(C(N)=O)(C1)C2 (single isomer, unassigned) [Compound 77] to C[C@@H]1Cc2c([nH]c3ccccc23)[C@@H](c2c(F)cc(OC3CN(CCCF)C3)cc2F)N1C12CC(C1)C2 [Compound 23, (1R,3R)-2-(bicyclo[1.1.1]pentan-1-yl)-1-(2,6-difluoro-4-((1-(3-fluoropropyl)azetidin-3-yl)oxy)phenyl)-3-methyl-2,3,4,9-tetrahydro-1H-pyrido[3,4-b]indole], the IC50 falls from ≥ 0.25 µM to ≤ 0.025 µM.

C[C@@H]1Cc2c([nH]c3ccccc23)[C@@H](c2ccc(N[C@@H]3CN(CCCF)C[C@H]3O)cc2)N1C12CC(C1)C2 (single isomer, unassigned) [Compound 80] and CCCN1C[C@H](F)[C@H](Nc2ccc([C@@H]3c4[nH]c5ccccc5c4C[C@@H](C)N3C34CC(C3)C4)cc2)C1 (single isomer, unassigned) [Compound 85] cannot be ordered by IC50: ≤ 0.025 µM for the first, ≤ 0.025 µM for the second.

C[C@H](F)CN1CC(Nc2ccc([C@@H]3c4[nH]c5ccccc5c4C[C@@H](C)N3C34CC(C3)C4)cc2)C1 (single isomer, unassigned) [Compound 83] and CCCN1C[C@@H](F)[C@@H](Nc2ccc([C@@H]3c4[nH]c5ccccc5c4C[C@@H](C)N3C34CC(C3)C4)cc2)C1 (single isomer, unassigned) [Compound 86] cannot be ordered by IC50: ≤ 0.025 µM for the first, 0.025 to 0.25 µM for the second.

First: C[C@H]1Cc2c([nH]c3ccccc23)[C@H](c2c(F)cc(O[C@H]3CCN(CCCF)C3)cc2F)N1C12CC(C#N)(C1)C2 (single isomer, unassigned) [Compound 90]
Second: C[C@@H]1Cc2c([nH]c3ccccc23)[C@@H](c2ncc(OC3CN(CCCF)C3)cc2F)N1C12CC(C1)C2 [Compound 14, (1S,3R)-2-(bicyclo[1.1.1]pentan-1-yl)-1-(3-fluoro-5-((1-(3-fluoropropyl)azetidin-3-yl)oxy)pyridin-2-yl)-3-methyl-2,3,4,9-tetrahydro-1H-pyrido[3,4-b]indole]
The IC50 of the first is higher: ≥ 0.25 µM for the first, ≤ 0.025 µM for the second.

C[C@@H]1Cc2c([nH]c3ccccc23)[C@@H](c2ncc(NC3CN(CCCF)C3)cc2F)N1C12CC(C1)C2 [Compound 13, 6-((1S,3R)-2-(bicyclo[1.1.1]pentan-1-yl)-3-methyl-2,3,4,9-tetrahydro-1H-pyrido[3,4-b]indol-1-yl)-5-fluoro-N-(1-(3-fluoropropyl)azetidin-3-yl)pyridin-3-amine] and C[C@@H]1Cc2c([nH]c3ccccc23)[C@@H](c2ccc(OCCN3CC(CF)C3)cc2F)N1C12CC(C1)C2 [Compound 25, (1R,3R)-2-(bicyclo[1.1.1]pentan-1-yl)-1-(2-fluoro-4-(2-(3-(fluoromethyl)azetidin-1-yl)ethoxy)phenyl)-3-methyl-2,3,4,9-tetrahydro-1H-pyrido[3,4-b]indole] cannot be ordered by IC50: ≤ 0.025 µM for the first, ≤ 0.025 µM for the second.

C[C@@H]1Cc2c([nH]c3ccccc23)[C@@H](c2c(F)cc(NCCN3CCCC3)cc2F)N1C12CC(C1)C2 [Compound 22, 4-((1R,3R)-2-(bicyclo[1.1.1]pentan-1-yl)-3-methyl-2,3,4,9-tetrahydro-1H-pyrido[3,4-b]indol-1-yl)-3,5-difluoro-N-(2-(pyrrolidin-1-yl)ethyl)aniline] and C[C@@H]1Cc2c([nH]c3ccccc23)[C@@H](c2ccc(OCCN3CC(CF)C3)cc2)N1C12CC(C1)C2 [Compound 24, (1R,3R)-2-(bicyclo[1.1.1]pentan-1-yl)-1-(4-(2-(3-(fluoromethyl)azetidin-1-yl)ethoxy)phenyl)-3-methyl-2,3,4,9-tetrahydro-1H-pyrido[3,4-b]indole] cannot be ordered by IC50: 0.025 to 0.25 µM for the first, ≤ 0.025 µM for the second.
